Assays:
HUVEC [1] = assay: Antioxidant activity in HUVEC assessed as suppression of ROS production by measuring fluorescent intensity index at 5 uM pre-incubated for 24 hrs before H2O2 stimulation for 2 hrs by DCF dye based fluorimetric assay; format: functional, Homo sapiens
HUVEC [2] = assay: Antioxidant activity in HUVEC assessed as suppression of ROS production by measuring fluorescent intensity index at 10 uM pre-incubated for 24 hrs before H2O2 stimulation for 2 hrs by DCF dye based fluorimetric assay; format: functional, Homo sapiens
HUVEC [3] = assay: Antioxidant activity in HUVEC assessed as suppression of ROS production by measuring fluorescent intensity index at 100 uM pre-incubated for 24 hrs before H2O2 stimulation for 2 hrs by DCF dye based fluorimetric assay; format: functional, cell-based; settings: Homo sapiens
HUVEC [4] = assay: Antioxidant activity in HUVEC assessed as suppression of ROS production pre-incubated for 24 hrs before H2O2 stimulation for 2 hrs by DCF dye based fluorescence microscopy; format: functional, cell-based; settings: Homo sapiens
HUVEC [5] = assay: Antioxidant activity in HUVEC assessed as suppression of ROS production at 0.5 uM pre-incubated for 24 hrs before H2O2 stimulation for 2 hrs by DCF dye based fluorescence microscopy; format: functional, cell-based; settings: Homo sapiens
HUVEC [6] = assay: Increase in SOD activity in H2O2-treated HUVEC at 0.5 to 50 uM pre-incubated for 24 hrs before H2O2 stimulation for 2 hrs; format: functional, cell-based; settings: Homo sapiens
HUVEC [7] = assay: Increase in nitric oxide secretion in H2O2-treated HUVEC at 0.5 to 50 uM pre-incubated for 24 hrs before H2O2 stimulation for 2 hrs; format: functional, cell-based; settings: Homo sapiens
HUVEC [8] = assay: Reduction in MDA level in H2O2-treated HUVEC at 0.5 to 50 uM pre-incubated for 24 hrs before H2O2 stimulation for 2 hrs; format: functional, cell-based; settings: Homo sapiens
HUVEC [9] = assay: Reduction in LDH release in H2O2-treated HUVEC at 0.5 to 50 uM pre-incubated for 24 hrs before H2O2 stimulation for 2 hrs; format: functional, cell-based; settings: Homo sapiens
HUVEC [10] = assay: Cytoprotective activity in H2O2-treated HUVEC assessed as reduction in H2O2-induced cell death at 0.5 to 50 uM pre-incubated for 24 hrs before H2O2 stimulation for 2 hrs by MTT assay; format: functional, cell-based; settings: Homo sapiens
HUVEC [11] = assay: Cytoprotective activity in H2O2-treated HUVEC assessed as cell survival at 0.5 uM pre-incubated for 24 hrs before H2O2 stimulation for 2 hrs by MTT assay (reference value: 66.91%); format: functional; settings: Homo sapiens, read-out: Survival
HUVEC [12] = assay: Cytoprotective activity in H2O2-treated HUVEC assessed as cell survival at 50 uM pre-incubated for 24 hrs before H2O2 stimulation for 2 hrs by MTT assay (reference value: 66.91%); format: functional; settings: Homo sapiens, read-out: Survival
[13] = Cytotoxicity against HUVEC assessed as cell survival at 0.5 to 50 uM after 24 hrs by MTT assay; format: cell-based; settings: human, HUVEC cells; read-out: Survival
HUVEC [14] = assay: Cytotoxicity against HUVEC assessed as cell death 1000 uM after 24 hrs by MTT assay; format: cell-based; settings: human

Molecule: C=C[C@]1(C)CC[C@@H](C(=C)C)C[C@H]1C(=C)COC(=O)c1ccc(OC)cc1
- Flu intensity (HUVEC [1]): 1.387

Molecule: C=C[C@]1(C)CC[C@@H](C(=C)C)C[C@H]1C(=C)COC(=O)c1ccccc1Cl
- Flu intensity (HUVEC [1]): 1.443

Molecule: C=C[C@]1(C)CC[C@@H](C(=C)C)C[C@H]1C(=C)COC(=O)c1ccccc1O
- Flu intensity (HUVEC [1]): 1.376

Molecule: C=C[C@]1(C)CC[C@@H](C(=C)COC(=O)c2ccc(OC)cc2)C[C@H]1C(=C)C
- Flu intensity (HUVEC [1]): 1.429

Molecule: C=C[C@]1(C)CC[C@@H](C(=C)COC(=O)c2ccc(F)cc2)C[C@H]1C(=C)C
- Flu intensity (HUVEC [1]): 1.417

Molecule: C=C[C@]1(C)CC[C@@H](C(=C)CO)C[C@H]1C(=C)C
- Flu intensity (HUVEC [1]): 1.291

Molecule: C=C[C@]1(C)CC[C@@H](C(=C)C)C[C@H]1C(=C)COC(=O)c1ccncc1
- Flu intensity (HUVEC [1]): 1.411

Molecule: C=C[C@]1(C)CC[C@@H](C(=C)C)C[C@H]1C(=C)COC(=O)CCC(=O)O
- Flu intensity (HUVEC [1]): 1.468

Molecule: C=C[C@]1(C)CC[C@@H](C(=C)COC(=O)CC)C[C@H]1C(=C)C
- Flu intensity (HUVEC [1]): 1.322

Molecule: C=C[C@]1(C)CC[C@@H](C(=C)C)C[C@H]1C(=C)COC(=O)c1ccc([N+](=O)[O-])cc1
- Flu intensity (HUVEC [1]): 1.393

Molecule: C=C[C@]1(C)CC[C@@H](C(=C)C)C[C@H]1C(=C)COC(=O)c1ccccc1C(=O)OCC(=C)[C@@H]1C[C@H](C(=C)C)CC[C@@]1(C)C(=C)C
- Flu intensity (HUVEC [1]): 1.168

Molecule: C=C[C@]1(C)CC[C@@H](C(=C)COC(=O)c2ccccc2)C[C@H]1C(=C)C
- Flu intensity (HUVEC [1]): 1.355

Molecule: C=C[C@]1(C)CC[C@@H](C(=C)COC(=O)c2ccccc2C(=O)O)C[C@H]1C(=C)C
- Flu intensity (HUVEC [1]): 1.416

Molecule: C=C[C@]1(C)CC[C@@H](C(=C)C)C[C@H]1C(=C)COC(=O)c1ccco1
- Flu intensity (HUVEC [1]): 1.39

Molecule: C=C[C@]1(C)CC[C@@H](C(=C)C)C[C@H]1C(=C)COC(=O)CCC
- Flu intensity (HUVEC [1]): 1.338

Molecule: C=C[C@]1(C)CC[C@@H](C(=C)C)C[C@H]1C(=C)C
- Flu intensity (HUVEC [1]): 1.281
- Flu intensity (HUVEC [2]): 1.23

Molecule: VITAMIN E
- Flu intensity (HUVEC [3]): 1.23

Molecule: C=C[C@]1(C)CC[C@@H](C(=C)C)C[C@H]1C(=C)COC(C)=O
- Flu intensity (HUVEC [1]): 1.322

Molecule: C=C[C@]1(C)CC[C@@H](C(=C)C)C[C@H]1C(=C)COC(=O)CC
- Flu intensity (HUVEC [1]): 1.383

Molecule: C=C[C@]1(C)CC[C@@H](C(=C)C)C[C@H]1C(=C)COC(=O)c1ccccc1C(=O)O
- Flu intensity (HUVEC [1]): 1.415

Molecule: C=C[C@]1(C)CC[C@@H](C(=C)COC(=O)c2cccnc2)C[C@H]1C(=C)C
- Flu intensity (HUVEC [1]): 1.524

Molecule: C=C[C@]1(C)CC[C@@H](C(=C)COC(=O)c2ccccc2O)C[C@H]1C(=C)C
- Flu intensity (HUVEC [1]): 1.286

Molecule: C=C[C@]1(C)CC[C@@H](C(=C)COC(=O)c2ccc(Cl)cc2)C[C@H]1C(=C)C
- Flu intensity (HUVEC [1]): 1.324

Molecule: C=C[C@]1(C)CC[C@@H](C(=C)COC(=O)c2ccncc2)C[C@H]1C(=C)C
- Flu intensity (HUVEC [1]): 1.447

Molecule: C=C[C@]1(C)CC[C@@H](C(=C)C)C[C@H]1C(=C)COC(=O)c1cccnc1
- Flu intensity (HUVEC [1]): 1.397

Molecule: C=C[C@]1(C)CC[C@@H](C(=C)COC(C)=O)C[C@H]1C(=C)C
- Flu intensity (HUVEC [1]): 1.391

Molecule: C=C[C@]1(C)CC[C@@H](C(=C)C)C[C@H]1C(=C)COC(=O)c1ccc(F)cc1
- Flu intensity (HUVEC [1]): 1.306

Molecule: C=C[C@]1(C)CC[C@@H](C(=C)C)C[C@H]1C(=C)COC(=O)c1ccc(Cl)cc1
- Flu intensity (HUVEC [1]): 1.458

Molecule: C=C[C@]1(C)CC[C@@H](C(=C)C)C[C@H]1C(=C)COC(=O)CCC(=O)OCC(=C)[C@@H]1C[C@H](C(=C)C)CC[C@@]1(C)C(=C)C
- Flu intensity (HUVEC [1]): 1.123

Molecule: C=C[C@]1(C)CC[C@@H](C(=C)COC(=O)c2ccc(C)cc2)C[C@H]1C(=C)C
- Flu intensity (HUVEC [1]): 1.411

Molecule: C=C[C@]1(C)CC[C@@H](C(=C)COC(=O)CCC(=O)O)C[C@H]1C(=C)C
- Flu intensity (HUVEC [1]): 1.403

Molecule: C=C[C@]1(C)CC[C@@H](C(=C)COC(=O)c2ccco2)C[C@H]1C(=C)C
- Flu intensity (HUVEC [1]): 1.488

Molecule: C=C[C@]1(C)CC[C@@H](C(=C)C)C[C@H]1C(=C)CO
- Flu intensity (HUVEC [1]): 1.37

Molecule: C=C[C@]1(C)CC[C@@H](C(=C)C)C[C@H]1C(=C)COC(=O)c1ccccc1
- Flu intensity (HUVEC [1]): 1.445

Molecule: C=C[C@]1(C)CC[C@@H](C(=C)COC(=O)c2ccccc2Cl)C[C@H]1C(=C)C
- Flu intensity (HUVEC [1]): 1.388

Molecule: C=C[C@]1(C)CC[C@@H](C(=C)COC(=O)CCC(=O)OCC(=C)[C@@H]2CC[C@@](C)(C=C)[C@H](C(=C)C)C2)C[C@H]1C(=C)C
- Flu intensity (HUVEC [1]): 1.092
- inhibition (HUVEC [4]): Dose-dependent effect
- inhibition (HUVEC [5]): Dose-dependent effect
- Activity (HUVEC [6]): Dose-dependent effect
- Activity (HUVEC [7]): Dose-dependent effect
- inhibition (HUVEC [8]): Dose-dependent effect
- inhibition (HUVEC [9]): Dose-dependent effect
- Activity (HUVEC [10]): Dose-dependent effect
- viability at 0.5 µM (HUVEC [11]): 81.2%
- viability at 50 µM (HUVEC [12]): 100%
- viability at 24 h, up to 50 µM [13]: > 92%
- Activity (HUVEC [14]): <= 50%

Molecule: C=C[C@]1(C)CC[C@@H](C(=C)C)C[C@H]1C(=C)COC(=O)c1cccc(F)c1
- Flu intensity (HUVEC [1]): 1.39

Molecule: C=C[C@]1(C)CC[C@@H](C(=C)C)C[C@H]1C(=C)COC(=O)c1ccc(C)cc1
- Flu intensity (HUVEC [1]): 1.322

Molecule: C=C[C@]1(C)CC[C@@H](C(=C)COC(=O)c2cccc(F)c2)C[C@H]1C(=C)C
- Flu intensity (HUVEC [1]): 1.39

Molecule: C=C[C@]1(C)CC[C@@H](C(=C)COC(=O)CCC)C[C@H]1C(=C)C
- Flu intensity (HUVEC [1]): 1.365

Molecule: C=C[C@]1(C)CC[C@@H](C(=C)COC(=O)c2ccccc2C(=O)OCC(=C)[C@@H]2CC[C@@](C)(C=C)[C@H](C(=C)C)C2)C[C@H]1C(=C)C
- Flu intensity (HUVEC [1]): 1.114
- inhibition (HUVEC [4]): Dose-dependent effect
- inhibition (HUVEC [5]): Dose-dependent effect
- Activity (HUVEC [6]): Dose-dependent effect
- Activity (HUVEC [7]): Dose-dependent effect
- inhibition (HUVEC [8]): Dose-dependent effect
- inhibition (HUVEC [9]): Dose-dependent effect
- Activity (HUVEC [10]): Dose-dependent effect
- viability at 50 µM (HUVEC [12]): 97.9%
- viability at 24 h, up to 50 µM [13]: > 92%
- Activity (HUVEC [14]): <= 50%

Molecule: C=C[C@]1(C)CC[C@@H](C(=C)COC(=O)c2ccc([N+](=O)[O-])cc2)C[C@H]1C(=C)C
- Flu intensity (HUVEC [1]): 1.304

— ChEMBL document CHEMBL3352572, “Design, synthesis and antioxidant activity evaluation of novel β-elemene derivatives” (Bioorg Med Chem Lett, 2014)
